{"source": "patent US8853222B2", "about": "“Treatment of herpes virus related diseases” (priority 2008, dated 2014)", "key": {"[1]": {"conditions": "cited from earlier work"}, "[2]": {"conditions": "oral, maximum dose of 800 mg 5 times per day, most patients; cited from earlier work"}, "[3]": {"conditions": "cited from earlier work", "remark": "listed apart in the source"}, "HSV-II": {"system": "HSV-II", "assay": "Suppression of vesicle formation, prodrome and viral shedding in person with ongoing HSV-II infection", "type": "in vivo, human", "text": "The inventor in this application is aware of the prior art teaching of U.S. Pat. No. 5,559,114 (“'114”) and International Application No. PCT/US95/16207 (“16207”) that describe the treatment of certain autoimmune diseases using higher than FDA-approved amounts of certain 2-amino purine derivatives. According to the teachings of the '114 patent and the 16207 application, one compound useful was acyclovir (or its precursor valacyclovir) at a level of 20 to 50 g per day for a 100 kg subject (or 5-10 g of valacyclovir). Another compound was famciclovir (the precursor of penciclovir) at about 4-10 g per day for a 100 kg subject ([…]). In following the treatment regime so taught for a subject having HSV-II infection and with the drug used to suppress autoimmune disease signs or symptoms, the inventor of the present invention observed that although the signs or symptoms of the subject's autoimmune disease improved, the subject continued to experience discomfort even if the high dose regimen of famciclovir described in the '114 patent was followed for a number of years. In addition, the subject continued to have prodrome episodes, vesicle outbreaks, and viral shedding. The prodrome is the sensation of tingling, pain or both in an area where the herpetic vesicles will appear within 24 to 48 hours. This is a very reliable signal that vesicles will appear on schedule. Vesicles are blisters or ulcers that appear on the skin or various mucous membranes as a result of the virus's replication process destroying cells that it has invaded. Viral shedding means that the virus is active on the skin, even though there is no prodrome or vesicle formation, and can be transmitted to another subject through skin contact, kissing, sexual intercourse, or oral sex.\nThis inventor interprets this to mean that viral shedding has been reduced dramatically, at least 90%. It is probably that viral shedding has been stopped completely. […]"}, "[4]": {"assay": "Aseptic meningio-encephalitis subject treated with much higher doses", "type": "in vivo, human", "conditions": "much higher doses than '114", "text": "While the treatment of autoimmune disease using high levels of the anti-herpetic drugs taught in patent '114 provided noticeable improvements in a patient, signs or symptoms lingered even with ongoing treatment. Knowing the warning of the anti-herpetic drug labels that were on the market against using higher doses, increasing the dose even further was definitely contraindicated. However, the inventor was confronted with a problem of a subject presenting with extremely painful migraine type headache, which was diagnosed to be aseptic (not bacterial) meningio-encephalitis. […] The inventor also discovered that by using the much higher doses of famciclovir than previously taught in '114, the need to titrate a subject to tolerance of the drug could be avoided, that is the higher doses were effective at ameliorating the signs or symptoms of the disease without the accompanying pain of starting at a low dose and increasing it to a therapeutically effective level, as experienced with the doses of '114. While not wishing to be bound by a particular theory, it is thought that by regularly administering the higher levels the drug, a subject avoids a fluctuating blood level that can add to the irritation of already irritated nerves by major influxes of drug at a high level after having been at a lower level in the subject. […]"}, "[5]": {"assay": "Renal function by creatinine clearance in one patient", "type": "in vivo, human", "conditions": "from ~29 mL/min before", "text": "This treatment is useful, not only in stopping the progression of the diseases, but in returning more of organ function previously lost. Text books claim that organ function lost to these diseases can never be recovered, but this treatment has succeeded in recovering nearly all lost organ function. One of the diseases for which a large return of function appears achievable is progressive loss of renal function by unknown cause, but suspected to be autoimmune disease related. A clinical laboratory measure of kidney function is creatinine clearance. Creatinine is the metabolic product formed from creatine when food is converted to energy. Creatinine is produced at a steady state and is affected very little by diet or normal physical activities. When a subject's kidneys are damaged and/or cannot function normally, the amount of creatinine excreted in the subject's urine decreases while its level in the blood increases. Thus, the blood level of creatinine indicates how well the kidneys are working A higher than normal blood level of creatinine usually means the kidneys are not functioning properly. […] As the measured kidney function improves a parallel process occurs in other affected tissues or organs, with a diminution of the visible inflammation, swelling, pain, grinding and clicks in the afflicted articular joints. […]"}}, "note": "“Also recorded” adds a separate entry of the source. Read-outs that look alike come from different tables or passages of the source.", "data": [{"smiles": "Nc1nc2c(ncn2COCCO)c(=O)[nH]1", "note": "[acyclovir, 2-amino-1,9-dihydro-9-[(2-hydroxyethoxy)methyl]-6H-purin-6-one]", "values": [{"measurement": "effect on pain, muscle spasms, joint tenderness and butterfly rash", "setting": "[1]; lupus patient, between 40 and 50 g per day", "result": "controlled pain, muscle spasms, joint tenderness and the butterfly rash"}, {"measurement": "blood level", "setting": "[2]", "result": "about 1.61 μg/mL"}]}, {"smiles": "CC(C)[C@H](N)C(=O)OCCOCn1cnc2c(=O)[nH]c(N)nc21", "note": "[valacyclovir, L-valine, 2-[(2-amino-1,6-dihydro-6-oxo-9H-purin-9-yl)methoxy]ethyl ester]", "values": [{"measurement": "oral bioavailability", "setting": "[3]; oral", "result": "55±9", "unit": "%"}]}, {"smiles": "CC(=O)OCC(CCn1cnc2cnc(N)nc21)COC(C)=O", "note": "[famciclovir, 2-[2-(2-amino-9H-purin-9-yl)ethyl]-1,3-propanediol diacetate]", "values": [{"measurement": "viral shedding reduced", "setting": "HSV-II; 300 mg/kg/day, inventor's interpretation from suppressed sensations", "result": "at least 90%"}, {"measurement": "prodrome and vesicle outbreak", "setting": "HSV-II; 10-12 g per day ('114 dose level)", "result": "continued to experience prodrome and vesicle outbreak"}, {"measurement": "vesicle formation", "setting": "HSV-II; ongoing dosage of 300 mg/kg/day, 300 mg/kg/day", "result": "no new vesicles form; also recorded: total suppression"}, {"measurement": "effect on pain, muscle spasms, joint tenderness and butterfly rash", "setting": "[1]; 10-12 g per day", "result": "same effect"}, {"measurement": "signs or symptoms of the encephalitis", "setting": "[4]", "result": "alleviated"}, {"measurement": "oral bioavailability", "setting": "[3]; in vivo, po", "result": "77±8", "unit": "%"}, {"measurement": "creatinine clearance", "setting": "[5]; doses of '114, same patient", "result": "~89", "unit": "mL/min"}, {"measurement": "creatinine clearance", "setting": "[5]; very high doses, one patient", "result": "more than 140 mL/min"}]}]}
